Measured values reported in US10464883B2, “Compounds and methods for the treatment of neurodegenerative diseases” (Resilio Therapeutics, LLC, priority 2015, dated 2019).

Assay: pH stability of prodrugs of DFMO in PBS buffer (LC/MS/MS)
Format: physicochemical
Protocol: The stability of prodrugs of DFMO to different pH conditions over time was assayed. Prodrugs were reconstituted in dimethylsulfoxide (DMSO), diluted into phosphate buffered saline (PBS) of different pH values, incubated for different lengths of time at room temperature, and then analyzed by LC/MS/MS for changes in the levels of each prodrug. […] Following this initial phase, the (2)-prodrug was reasonably stable over the next 24 hours so that less than 20% of the intact prodrug was lost at pH 3 and 5, and about 60% of the intact material was lost at pH 8 over a day. […] Similar results were obtained with the other prodrugs tested.

CC(OC(=O)NCCCC(N)(C(=O)O)C(F)F)OC(=O)C(C)C (stereo not drawn) [(2)-prodrug, 2-amino-2-(difluoromethyl)-5-[1-(2-methylpropanoyloxy)ethoxycarbonylamino]pentanoic acid]
intact prodrug lost over the next 24 hours (PBS pH 3, room temperature, 24 hours following initial phase): less than 20% | decrease in the amount of intact, non-degraded prodrug over the first hour of incubation (PBS pH 3, room temperature): about 60% | intact prodrug lost over the next 24 hours (PBS pH 5, room temperature, 24 hours following initial phase): less than 20% | decrease in the amount of intact, non-degraded prodrug over the first hour of incubation (PBS pH 5, room temperature): 30-35% | intact material lost over a day (PBS pH 8, room temperature, 24 hours following initial phase): about 60% | decrease in the amount of intact, non-degraded prodrug over the first hour of incubation (PBS pH 8, room temperature): 30-35%
